Test results taken from paper PMC8279981, “A first-in-human, phase 1 study of the NEDD8 activating enzyme E1 inhibitor TAS4464 in patients with advanced solid tumors” (Investigational New Drugs, 2021).

Assays:
dog = system: dog; design: method as in unpublished data; conditions: TAS4464 without a N,N-dimethylacetamide group; ref unpublished data; cited from earlier work
[1] = system: advanced or metastatic solid tumors; experiment: Phase 1 study: clinical response (RECIST v1.1), PFS; format: in vivo, human
Description: Secondary objectives included assessment of AEs, treatment-related AEs, objective response rate (ORR), disease control rate (DCR), progression-free survival (PFS), and PK, pharmacodynamic, and pharmacogenomic (PGx) parameters with TAS4464 administration. The National Cancer Institute Common Terminology Criteria for Adverse Events (NCI CTCAE) v4.03 [17] was used to assess the severity of AEs. The Medical Dictionary for Regulatory Activities (MedDRA) version 22.1 was used to classify AEs. RECIST v1.1 [16] was used to determine clinical response, and all computed tomography images were assessed by the physician at the study site after completion of the imaging procedure. The ORR was defined as the percentage of patients with the best overall response of complete response (CR) or partial response (PR). The DCR was the percentage of patients with a best overall response of CR, PR, stable disease (SD), or non-CR/non-progressive disease (PD). PFS was defined as the time from the date of enrollment until the date of investigator-assessed radiological disease progression or death due to any cause, whichever occurred first. The analysis populations included in the study are summarized in the Supplementary Appendix. DLTs were recorded by incidence and 95% confidence intervals (CI). Median PFS and 95% CIs were calculated using Kaplan–Meier methodology. Best overall response was tabulated, and the ORR and DCR with 95% CIs were calculated by dose level. PK parameters were evaluated using non-compartmental methods. For the pharmacodynamic parameter of cullin-NEDD8 in PBMC, summary statistics and a scatter plot of the percentage change from baseline were produced. Missing data were not imputed. […] SAS software v9.4 (SAS Institute Inc., Cary NC, USA) was used for all statistical processing.

tumor cell lines = conditions: cited from earlier work
OATP1B1 = experiment: Pharmacogenomics: SLCO1B1 polymorphisms versus PK; format: in vivo, human; conditions: phenotype assigned by SLCO1B1 genotypes; data not shown
Protocol: The PK endpoints included maximum plasma concentration (Cmax), area under the concentration–time curve from time zero up to the last observable concentration (AUC0-last) and plasma accumulation of TAS4464 after multiple doses. PK parameters were evaluated on Day 1 of Cycle 1 and Day 15 of Cycle 1 in the weekly dosing cohort, as well as on Day 1 of the lead-in period and Day 1 of Cycle 1 in the weekly with lead-in dosing cohort. The evaluation of the relationship between solute carrier organic anion transporter family member 1B1 (SLCO1B1) genetic polymorphisms and PK (i.e., the mean and individual clearance [CL] and volume of distribution at steady-state [Vdss] by each OATP1B1 phenotype) was assessed as the PGx analysis endpoint.

NAE = conditions: compared with MLN4924; cited from earlier work
[2] = system: patients with advanced or metastatic solid tumors; experiment: Phase 1 study: dose-limiting toxicities and maximum tolerated dose; format: in vivo
Protocol: The highest non-severely toxic dose was derived from a dog toxicology study and was used to calculate a clinical starting dose of 10 mg/m^2, which corresponds to one-sixth of the human-equivalent dose. The maximum tolerated dose (MTD) of TAS4464 was investigated using an accelerated titration design. Initially, the starting TAS4464 dose was 10 mg/m^2 and was followed by an initial accelerated stage (i.e., weekly dosing phase) with 100% dose-step increments (level 1: 10 mg/m^2, level 2: 20 mg/m^2, level 3: 40 mg/m^2, and level 4: 56 mg/m^2). The 100% dose-step increments continued until the occurrence of a grade ≥ 2 drug-related toxicity within Cycle 1; dose-limiting toxicity (DLT) within Cycle 1; the next dose level reaching 60 mg/m^2; or any safety concerns. Thereafter, 40% increments were employed in the standard stage.
In the standard stage, three to six patients were to be enrolled, and the dose was escalated in 40% increments if none of the first three patients experienced a DLT. If one patient experienced a DLT, three additional patients were to be enrolled at the same dose level. If two of three or two of six patients experienced a DLT, the dose escalation was to be ceased. […] Additionally, DLT criteria regarding abnormal liver function and discontinuation criteria for study drug administration were added. The TAS4464 dose level for Day 1 of Cycle 1 was then set to 40 mg/m^2 (level 3).
The primary objective of the study was to investigate DLTs. Treatment-related adverse events (AEs) during the lead-in period and Cycle 1 were included in the assessment of DLT, which was defined as follows: 1) grade 4 neutropenia lasting >7 days or neutropenia requiring treatment; 2) grade 4 thrombocytopenia or thrombocytopenia requiring blood transfusion; 3) febrile neutropenia; 4) grade ≥ 3 nausea, vomiting, or diarrhea lasting >48 h and uncontrolled by treatment; 5) grade ≥ 3 aspartate aminotransferase (AST) increase or alanine aminotransferase (ALT) increase lasting ≥3 days; or 6) any other grade ≥ 3 non-hematologic toxicity.

[3] = weekly dosing Level 1 (10 mg/m^2), n = 1
[4] = weekly dosing Level 2 (20 mg/m^2), n = 1
[5] = weekly dosing Level 3 (40 mg/m^2), n = 3
[6] = weekly dosing Level 4 (56 mg/m^2), n = 5
[7] = weekly dosing with lead-in Level 3 (20 → 40 mg/m^2), n = 3
[8] = weekly dosing with lead-in Level 4 (20 → 56 mg/m^2), n = 3
[9] = weekly dosing with lead-in Total, n = 6

SMILES: CCOc1cccc(F)c1C#Cc1cn([C@@H]2O[C@H](CNS(N)(=O)=O)[C@@H](O)[C@H]2O)c2ncnc(N)c12 [TAS4464]
- toxic liver findings (dog): toxic liver findings were not observed
- Disease control rate (CR + PR + SD + non-CR/non-PD) ([1]; Total, N = 16): 5 (31.3) n (%)
- Not evaluable (best overall response) ([1]; Total, N = 16): 1 (6.3) n (%)
- PD (best overall response) ([1]; Total, N = 16): 10 (62.5) n (%)
- Response rate (CR + PR) ([1]; Total, N = 16): 0 n (%)
- Disease control rate (CR + PR + SD + non-CR/non-PD) [1, 3]: 1 (100.0) n (%)
- Not evaluable (best overall response) [1, 3]: 0 n (%)
- PD (best overall response) [1, 3]: 0 n (%)
- Response rate (CR + PR) [1, 3]: 0 n (%)
- Disease control rate (CR + PR + SD + non-CR/non-PD) [1, 4]: 1 (100.0) n (%)
- Not evaluable (best overall response) [1, 4]: 0 n (%)
- PD (best overall response) [1, 4]: 0 n (%)
- Response rate (CR + PR) [1, 4]: 0 n (%)
- Disease control rate (CR + PR + SD + non-CR/non-PD) [1, 5]: 1 (33.3) n (%)
- Not evaluable (best overall response) [1, 5]: 0 n (%)
- PD (best overall response) [1, 5]: 2 (66.7) n (%)
- Response rate (CR + PR) [1, 5]: 0 n (%)
- Disease control rate (CR + PR + SD + non-CR/non-PD) [1, 6]: 2 (40.0) n (%)
- Not evaluable (best overall response) [1, 6]: 0 n (%)
- PD (best overall response) [1, 6]: 3 (60.0) n (%)
- Response rate (CR + PR) [1, 6]: 0 n (%)
- Disease control rate (CR + PR + SD + non-CR/non-PD) ([1]; weekly dosing Total, N = 10): 5 (50.0) n (%)
- Not evaluable (best overall response) ([1]; weekly dosing Total, N = 10): 0 n (%)
- PD (best overall response) ([1]; weekly dosing Total, N = 10): 5 (50.0) n (%)
- Response rate (CR + PR) ([1]; weekly dosing Total, N = 10): 0 n (%)
- best overall response ([1]; weekly dosing cohort): no patients showed a CR or PR
- DCR ([1]; weekly dosing cohort, 10 patients, 95% CI 18.7–81.3): 50.0%
- median PFS ([1]; weekly dosing cohort, 95% CI 1.0–7.0): 3.7 months
- Disease control rate (CR + PR + SD + non-CR/non-PD) [1, 7]: 0 n (%)
- Not evaluable (best overall response) [1, 7]: 0 n (%)
- PD (best overall response) [1, 7]: 3 (100.0) n (%)
- Response rate (CR + PR) [1, 7]: 0 n (%)
- Disease control rate (CR + PR + SD + non-CR/non-PD) [1, 8]: 0 n (%)
- Not evaluable (best overall response) [1, 8]: 1 (33.3) n (%)
- PD (best overall response) [1, 8]: 2 (66.7) n (%)
- Response rate (CR + PR) [1, 8]: 0 n (%)
- Disease control rate (CR + PR + SD + non-CR/non-PD) [1, 9]: 0 n (%)
- Not evaluable (best overall response) [1, 9]: 1 (16.7) n (%)
- PD (best overall response) [1, 9]: 5 (83.3) n (%)
- Response rate (CR + PR) [1, 9]: 0 n (%)
- best overall response ([1]; weekly dosing with lead-in period cohort): no patients showed CR, PR, or SD
- median PFS ([1]; weekly dosing with lead-in period cohort, 95% CI 0.5–2.9): 1.5 months
- inhibitory effects in cells (tumor cell lines; compared with MLN4924): greater inhibitory effects than MLN4924
- time course of antiproliferative effects (tumor cell lines; dose- and time-dependent increase): plateauing after 24 h
- mean and individual CL and Vdss by OATP1B1 phenotype (OATP1B1): no obvious differences were observed
- inhibitory effects in enzyme assays (NAE): greater inhibitory effects than MLN4924
- MTD ([2]; weekly dosing regimen): could not be determined
- DLT incidence (grade 3 ALT increased and grade 3 AST increased) ([2]; weekly dosing with lead-in period, dose level 4 (56 mg/m^2)): 1/5
- DLT incidence (grade 4 ALT increased) ([2]; weekly dosing, dose level 4 (56 mg/m^2), DLT-evaluable population): 1/5 and one of five patients
